Results taken from patent publication US20240018123A1, “COMPOUND FOR INHIBITING OR DISINTEGRATING ANDROGEN RECEPTOR, AND PHARMACEUTICAL USE THEREOF” (KOREA RESEARCH INSTITUTE OF CHEMICAL TECHNOLOGY, priority 2020, published 2024).

Molecular target: T1, Androgen receptor (AR) (Homo sapiens, UniProt P10275, T878A)
T1 construct: 5.5×10^5 LNCap cells were injected into each well of a 6-well plate; endogenous in cells; host or cells: LNCaP
T1 sequence (P10275 1-920 T878A): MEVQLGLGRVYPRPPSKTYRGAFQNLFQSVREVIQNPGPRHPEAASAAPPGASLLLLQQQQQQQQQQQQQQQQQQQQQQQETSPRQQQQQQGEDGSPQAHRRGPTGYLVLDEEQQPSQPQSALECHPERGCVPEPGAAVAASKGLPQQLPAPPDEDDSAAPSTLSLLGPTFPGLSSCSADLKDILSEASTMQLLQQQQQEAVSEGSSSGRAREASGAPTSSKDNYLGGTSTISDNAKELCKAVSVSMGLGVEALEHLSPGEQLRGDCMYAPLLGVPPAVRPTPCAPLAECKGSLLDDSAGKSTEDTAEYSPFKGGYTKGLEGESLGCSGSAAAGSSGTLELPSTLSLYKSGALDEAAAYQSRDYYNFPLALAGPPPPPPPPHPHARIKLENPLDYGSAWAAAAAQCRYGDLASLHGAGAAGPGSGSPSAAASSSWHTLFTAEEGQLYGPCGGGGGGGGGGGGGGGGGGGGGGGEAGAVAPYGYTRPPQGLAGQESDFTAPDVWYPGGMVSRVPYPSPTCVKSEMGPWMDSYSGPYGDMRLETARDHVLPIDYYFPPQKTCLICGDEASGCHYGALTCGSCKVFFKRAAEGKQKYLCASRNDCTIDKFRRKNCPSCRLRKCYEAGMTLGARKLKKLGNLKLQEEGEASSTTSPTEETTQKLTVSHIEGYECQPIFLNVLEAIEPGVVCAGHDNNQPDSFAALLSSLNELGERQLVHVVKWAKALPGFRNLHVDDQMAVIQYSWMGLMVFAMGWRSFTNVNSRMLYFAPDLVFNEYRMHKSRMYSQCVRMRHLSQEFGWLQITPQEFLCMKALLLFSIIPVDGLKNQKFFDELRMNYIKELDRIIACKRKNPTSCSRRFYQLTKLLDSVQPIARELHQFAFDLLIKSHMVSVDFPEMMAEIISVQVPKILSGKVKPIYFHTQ
Assay: Assessment of AR proteolytic activity (Western blotting of LNCap cell lysates)
Assay type: cell-based
Conditions: 24 hours of treatment, Western blotting quantified with Image J
Method: Assessment of AR Proteolytic Activity
Androgen receptor (AR) proteolytic activity of the compound according to the present invention was evaluated as follows: Specifically, 5.5×10^5 LNCap cells were injected into each well of a 6-well plate. […] After 24 hours of treatment, cells were collected and lysed using RIPA Lysis buffer (50 mM Tris-HCl, pH7.5, 150 mM NaCl, 1% Triton X-100, 2 mM EDTA, 0.1% SDS, 0.5% sodium deoxycholate and protease inhibitor cocktail) to make cell lysates. Western blotting was performed, and the results were quantified using Image J program.

Q: CC1(C)C(NC(=O)c2ccc(C#CC3CCN(CC4CN(c5ccc6nnn(C7CCC(=O)NC7=O)c(=O)c6c5)C4)CC3)nc2)C(C)(C)C1Oc1ccc(C#N)c(Cl)c1 (stereo not drawn) [Example 184, N-((1r,3r)-3-(3-chloro-4-cyanophenoxy)-2,2,4,4-tetramethylcyclobutyl)-6-((1-((1-(3-(2,6-dioxopiperidin-3-yl)-4-oxo-3,4-dihydrobenzo[d][1,2,3]triazin-6-yl)azetidin-3-yl)methyl)piperidin-4-yl)ethynyl)nicotinamide] was tested. Which “Degradation (1 μM treated in LNCaP, % AR remaining)” value did it give?
A: Its value is 11%.

Q: CC1(C)C(NC(=O)c2ccc(N3CCC(CCN4CCN(c5ccc6c(=O)n(C7CCC(=O)NC7=O)nnc6c5)CC4)CC3)nc2)C(C)(C)C1Oc1ccc(C#N)c(Cl)c1 (stereo not drawn) [Example 197, N-((1r,3r)-3-(3-chloro-4-cyanophenoxy)-2,2,4,4-tetramethylcyclobutyl)-6-(4-(2-(4-(3-(2,6-dioxopiperidin-3-yl)-4-oxo-3,4-dihydrobenzo[d][1,2,3]triazin-7-yl)piperazin-1-yl)ethyl)piperidin-1-yl)nicotinamide] was tested. Which “Degradation (1 μM treated in LNCaP, % AR remaining)” value did it give?
A: Its value is 16%.

Q: For CC1(C)C(NC(=O)c2ccc(N3CCC4(CC3)CN(CC3CN(c5ccc6nnn(C7CCC(=O)NC7=O)c(=O)c6c5)C3)C4)nc2)C(C)(C)C1Oc1ccc(C#N)c(Cl)c1 (stereo not drawn) [Example 176, N-((1r,3r)-3-(3-chloro-4-cyanophenoxy)-2,2,4,4-tetramethylcyclobutyl)-6-(2-((1-(3-(2,6-dioxopiperidin-3-yl)-4-oxo-3,4-dihydrobenzo[d][1,2,3]triazin-6-yl)azetidin-3-yl)methyl)-2,7-diazaspiro[3.5]nonan-7-yl)nicotinamide], which “Degradation (1 μM treated in LNCaP, % AR remaining)” value is on record?
A: Its value is 6%.

Q: Which “Degradation (1 μM treated in LNCaP, % AR remaining)” value does the source give for CC1(C)C(NC(=O)c2ccc(N3CC[C@H](CN4CC5(CCN(c6ccc7nnn(C8CCC(=O)NC8=O)c(=O)c7c6)CC5)C4)C3)nc2)C(C)(C)C1Oc1ccc(C#N)c(Cl)c1 (stereo partly drawn) [Example 186, N-((1r,3R)-3-(3-chloro-4-cyanophenoxy)-2,2,4,4-tetramethylcyclobutyl)-6-((3R)-3-((7-(3-(2,6-dioxopiperidin-3-yl)-4-oxo-3,4-dihydrobenzo[d][1,2,3]triazin-6-yl)-2,7-diazaspiro[3.5]nonan-2-yl)methyl)pyrrolidin-1-yl)nicotinamide] here?
A: The value was 11%.

Q: Which “Degradation (1 μM treated in LNCaP, % AR remaining)” value does the source give for CC1(C)C(NC(=O)c2ccc(N3CC[C@@H](CN4CC5(CCN(c6ccc7nnn(C8CCC(=O)NC8=O)c(=O)c7c6)CC5)C4)C3)nc2)C(C)(C)C1Oc1ccc(C#N)c(Cl)c1 (stereo partly drawn) [Example 188, N-((1r,3S)-3-(3-chloro-4-cyanophenoxy)-2,2,4,4-tetramethylcyclobutyl)-6-((3S)-3-((7-(3-(2,6-dioxopiperidin-3-yl)-4-oxo-3,4-dihydrobenzo[d][1,2,3]triazin-6-yl)-2,7-diazaspiro[3.5]nonan-2-yl)methyl)pyrrolidin-1-yl)nicotinamide] here?
A: Its value is 21%.

Q: For CC1(C)C(NC(=O)c2ccc(N3CCC(CN4CC5(CCN(c6ccc7c(=O)n(C8CCC(=O)NC8=O)nnc7c6)CC5)C4)CC3)nc2)C(C)(C)C1Oc1ccc(C#N)c(Cl)c1 (stereo not drawn) [Example 169, N-((1r,3r)-3-(3-chloro-4-cyanophenoxy)-2,2,4,4-tetramethylcyclobutyl)-6-(4-((7-(3-(2,6-dioxopiperidin-3-yl)-4-oxo-3,4-dihydrobenzo[d][1,2,3]triazin-7-yl)-2,7-diazaspiro[3.5]nonan-2-yl)methyl)piperidin-1-yl)nicotinamide], which “Degradation (1 μM treated in LNCaP, % AR remaining)” value is on record?
A: The value was 16%.

Q: How did the “Degradation (1 μM treated in LNCaP, % AR remaining)” value turn out when “N-((1r,3r)-3-(3-chloro-4-cyanophenoxy)-2,2,4,4-tetramethylcyclobutyl)-4-(4-(1-(3-(2,6-dioxopiperidin-3-yl)-4-oxo-3,4-dihydrobenzo[d][1,2,3]triazin-6-yl)azetidine-3-carbonyl)piperazin-1-yl)benzamide [Example 44]” was run?
A: Its value is 3.7%.

Q: CC1(C)C(NC(=O)c2ccc(N3CC[C@H](CN4CCC5(CC4)CN(c4ccc6c(=O)n(C7CCC(=O)NC7=O)nnc6c4)C5)C3)nc2)C(C)(C)C1Oc1ccc(C#N)c(Cl)c1 (stereo partly drawn) [Example 189, N-((1r,3R)-3-(3-chloro-4-cyanophenoxy)-2,2,4,4-tetramethylcyclobutyl)-6-((3R)-3-((2-(3-(2,6-dioxopiperidin-3-yl)-4-oxo-3,4-dihydrobenzo[d][1,2,3]triazin-7-yl)-2,7-diazaspiro[3.5]nonan-7-yl)methyl)pyrrolidin-1-yl)nicotinamide] was tested. Which “Degradation (1 μM treated in LNCaP, % AR remaining)” value did it give?
A: Its value is 14%.

Q: With N#Cc1ccc(O[C@H]2CC[C@@H](NC(=O)c3ccc(N4CCN(CCCOc5ccc6nnn(C7CCC(=O)NC7=O)c(=O)c6c5)CC4)nc3)CC2)cc1Cl (stereo partly drawn) [Example 161, N-((1r,4r)-4-(3-chloro-4-cyanophenoxy)cyclohexyl)-6-(4-(3-((3-(2,6-dioxopiperidin-3-yl)-4-oxo-3,4-dihydrobenzo[d][1,2,3]triazin-6-yl)oxy)propyl)piperazin-1-yl)nicotinamide] as the compound, how does the “Degradation (1 μM treated in LNCaP, % AR remaining)” value read?
A: The value was 36%.

Q: For CC1(C)[C@H](NC(=O)c2ccc(N3CC[C@H](CN4CC5(CCN(c6ccc7c(=O)n(C8CCC(=O)NC8=O)nnc7c6)CC5)C4)C3)nc2)C(C)(C)[C@H]1Oc1ccc(C#N)c(Cl)c1 (stereo partly drawn) [Example 185, N-((1r,3R)-3-(3-chloro-4-cyanophenoxy)-2,2,4,4-tetramethylcyclobutyl)-6-((3R)-3-((7-(3-(2,6-dioxopiperidin-3-yl)-4-oxo-3,4-dihydrobenzo[d][1,2,3]triazin-7-yl)-2,7-diazaspiro[3.5]nonan-2-yl)methyl)pyrrolidin-1-yl)nicotinamide], which “Degradation (1 μM treated in LNCaP, % AR remaining)” value is on record?
A: Its value is 10%.

Q: With CC1(C)C(NC(=O)c2ccc(N3CCC(CN4CC5(CCN(c6ccc7nnn(C8CCC(=O)NC8=O)c(=O)c7c6)CC5)C4)CC3)nc2)C(C)(C)C1Oc1ccc(C#N)c(Cl)c1 (stereo not drawn) [Example 170, N-((1r,3r)-3-(3-chloro-4-cyanophenoxy)-2,2,4,4-tetramethylcyclobutyl)-6-(4-((7-(3-(2,6-dioxopiperidin-3-yl)-4-oxo-3,4-dihydrobenzo[d][1,2,3]triazin-6-yl)-2,7-diazaspiro[3.5]nonan-2-yl)methyl)piperidin-1-yl)nicotinamide] as the compound, how does the “Degradation (1 μM treated in LNCaP, % AR remaining)” value read?
A: Its value is 16%.

Q: For N#Cc1ccc(OC2CCC(NC(=O)c3ccc(N4CCC(CN5CCN(c6ccc7nnn(C8CCC(=O)NC8=O)c(=O)c7c6)CC5)CC4)nc3)CC2)cc1Cl (stereo not drawn) [Example 160, N-((1r,4r)-4-(3-chloro-4-cyanophenoxy)cyclohexyl)-6-(4-((4-(3-(2,6-dioxopiperidin-3-yl)-4-oxo-3,4-dihydrobenzo[d][1,2,3]triazin-6-yl)piperazin-1-yl)methyl)piperidin-1-yl)nicotinamide], which “Degradation (1 μM treated in LNCaP, % AR remaining)” value is on record?
A: The value was 31%.

Q: Which “Degradation (1 μM treated in LNCaP, % AR remaining)” value does the source give for CC1(C)C(NC(=O)c2ccc(N3CC[C@H](CN4CCN(C5CCN(c6ccc7c(=O)n(C8CCC(=O)NC8=O)nnc7c6)CC5)CC4)C3)nc2)C(C)(C)C1Oc1ccc(C#N)c(Cl)c1 (stereo partly drawn) [Example 191, N-((1r,3R)-3-(3-chloro-4-cyanophenoxy)-2,2,4,4-tetramethylcyclobutyl)-6-((3R)-3-((4-(1-(3-(2,6-dioxopiperidin-3-yl)-4-oxo-3,4-dihydrobenzo[d][1,2,3]triazin-7-yl)piperidin-4-yl)piperazin-1-yl)methyl)pyrrolidin-1-yl)nicotinamide] here?
A: The value was 33%.

Q: For CC1(C)C(NC(=O)c2ccc(N3CC[C@@H](CN4CC5(CCN(c6ccc7c(=O)n(C8CCC(=O)NC8=O)nnc7c6)CC5)C4)C3)nc2)C(C)(C)C1Oc1ccc(C#N)c(Cl)c1 (stereo partly drawn) [Example 187, N-((1r,3S)-3-(3-chloro-4-cyanophenoxy)-2,2,4,4-tetramethylcyclobutyl)-6-((3S)-3-((7-(3-(2,6-dioxopiperidin-3-yl)-4-oxo-3,4-dihydrobenzo[d][1,2,3]triazin-7-yl)-2,7-diazaspiro[3.5]nonan-2-yl)methyl)pyrrolidin-1-yl)nicotinamide], which “Degradation (1 μM treated in LNCaP, % AR remaining)” value is on record?
A: The value was 27%.

Q: For CC1(C)C(NC(=O)c2ccc(N3CC[C@H](CN4CCN(C5CCN(c6ccc7nnn(C8CCC(=O)NC8=O)c(=O)c7c6)CC5)CC4)C3)nc2)C(C)(C)C1Oc1ccc(C#N)c(Cl)c1 (stereo partly drawn) [Example 192, N-((1r,3R)-3-(3-chloro-4-cyanophenoxy)-2,2,4,4-tetramethylcyclobutyl)-6-((3R)-3-((4-(1-(3-(2,6-dioxopiperidin-3-yl)-4-oxo-3,4-dihydrobenzo[d][1,2,3]triazin-6-yl)piperidin-4-yl)piperazin-1-yl)methyl)pyrrolidin-1-yl)nicotinamide], which “Degradation (1 μM treated in LNCaP, % AR remaining)” value is on record?
A: The value was 22%.
